Data published in paper PMC10799935, “Discovery of a peripheral 5HT2A antagonist as a clinical candidate for metabolic dysfunction-associated steatohepatitis” (Nature Communications, 2024).
Where “and” joins values, the source holds several entries; their conditions need not be identical. Equal entries are not always repeated.

How the values were obtained:
Assay type in all cases: in vivo, mouse
STZ+HFD mice = STZ+HFD mice (modified STAM) NASH and liver fibrosis model; details: 11c 5 or 10 mg/kg, OCA 10 mg/kg
Method: Mice were intraperitoneally injected with low-dose streptozotocin (40 mg/kg; 5 times) in 7-week-old mice. After injection with STZ, mice were fed an HFD for 16 weeks to induce NASH and liver fibrosis. After 16 weeks of an HFD, mice were fed a standard chow diet to mimic the NASH patient under […]
nine weeks by oral gavage (Reviewer-only data 4). […]
inflammation, hepatocyte ballooning, and total NAFLD activity score by the NASH CRN histological scoring system (Reviewer-only data 4B, C). […]
hepatic fibrosis stage similar to STZ+HFD mice treated with OCA (Reveiwer-only data 4D, E). STZ+HFD mice […]
function (Reviwer-only data 4F). […]
group (Reviewer-only data 4G). Furthermore, the expression of genes related to lipogenesis and fibrosis was reduced in the compound 11c-treated group in a dose-dependent manner (Reviewer-only data 4H, I). These […]
Reviewer-only Data 4. Compound 11c treatment with dietary modification ameliorates NASH and liver fibrosis in a dose-dependent manner. (A) Experimental scheme for in vivo efficacy of compound 11c in […]
(STZ+HFD mice. (B-I) STZ+HFD mice fed HFD for 16 weeks were switched to SCD for 9 weeks and were treated with vehicle, compound 11c, or OCA by daily oral gavage. (B) Representative liver histology by H&E staining […]
mg/kg. Scale bars, 100µm. […]
mice; n = 9 per group. (D) Representative liver histology by Masson’s trichrome staining from vehicle, […]
Scale bars, 100µm. (E) Fibrosis stage
(F) Serum AST and ALT levels; n = 9 per […]
group. (G) Serum TG levels and hepatic TG levels; n = 9 per group. (H) Relative mRNA expression of lipogenesis-related genes as assessed by qRT-PCR in the liver; n = 9 per group. (I) Relative mRNA expression of fibrosis-related genes as assessed by qRT-PCR in the liver; n = 9 per group. Data are expressed as the means ±SEM.
[…], **P<0.01, one-way ANOVA with post hoc Tukey’s test (C, E, F, G, H, I). […]
Representative liver histology by Masson’s trichrome staining and Sirius Red staining. Scale bars, 100µm. (E) […]
one-way ANOVA with post hoc Tukey’s test (C, E).
Comment 2: In "Methods", the author claims to use HEK293 cells (a type of cell derived from kidney embryos) for cell research, however, the data in Table 5 are the results of hepatocyte experiments. What happened? Response: We appreciate the Reviewer’s comment. HEK293 cells were used for inhibition assay (cell research), shown in Table 1-3 of the main manuscript, while, hepatic cell lines were used for chemical profiling and for “Hepatocyte stability” test, shown in Table 5 of the main manuscript. The “Selectivity” of Compound 11c for different 5HT subtypes is elucidated in response to Comment 6.
We have modified the Methods section to provide clarity.

HFD-fed C57BL/6J mice [1] = test: DIO mice: liver histology (H&E), NAFLD activity score (steatosis, inflammation, ballooning); set-up: key to Steatosis (NAFLD Activity Score), individual animals / Steatosis score, group mean: steatosis score 0-3 (0 <5% to 3 >66% fat accumulation); details: for Ballooning (NAFLD Activity Score), individual animals / Inflammation (NAFLD Activity Score), individual animals / Steatosis (NAFLD Activity Score), individual animals / Total Activity (Total NAFLD Activity Score), individual animals: DIO C57BL/6J mice, one value per animal; for Hepatocyte ballooning score, Mean Diff. (Vehicle vs. treated): Dunnett's multiple comparisons test
Source text: Epididymal, inguinal, and liver were harvested, fixed in 10% (w/v) neutral buffered formalin solution (Sigma-Aldrich), and embedded in paraffin. Five-micron-thick tissue sections were deparaffinized, rehydrated, and stained with hematoxylin and eosin (H&E)[10]. The total NAFLD activity score (NAS) is a widely used measure of grading for steatosis, lobular inflammation, and ballooning. The total NAS ranges from 0-8 and is the sum of unweighted scores for steatosis (0: <5%, 1: 5 ~ 33%, 2: 33 ~ 66%, 3: >66% fat accumulation in the liver), lobular inflammation (0: no foci inflammation in x200 field, 1: <2 foci inflammation, 2: 2 ~ 4 foci inflammation, 3: >4 foci inflammation), and hepatocellular ballooning (0: none, 1: few ballooning cells, 2: prominent ballooning cells). MASH was diagnosed when NAS was >5, while non-MASH was diagnosed when NAS was <4. According to the MASH CRN scoring system, a certified pathologist determined the NAS[39]. The histological scoring was performed blindly, without knowledge of any other information.

HFD-fed C57BL/6J mice [2] = test: DIO mice: blood profiling (serum cholesterol, triglyceride); details: PO; for Blood Biochemistry CHO, individual animals / Blood Biochemistry TG, individual animals: DIO C57BL/6J mice, one value per animal; for Blood Biochemistry CHO, individual animals: serum total cholesterol; for Blood Biochemistry TG, individual animals: serum; for Serum TG levels, group mean / Serum total cholesterol levels (CHO), group mean: DIO mice
Method: Blood samples were obtained by cardiac puncture, and plasma was isolated. Blood profiling was performed by GC Pharma (Green Cross Corporation). Plasma TG and cholesterol were detected with an in vitro enzymatic colorimetric assay (CHOL2 and TRIGL; Roche, Germany) using a Cobas 8000 clinical analyzer with a c702 module (Roche).

HFD-fed C57BL/6J mice [3] = test: DIO mice: quantification of hepatic triglyceride; details: PO, liver; for Hepatic TG Levels, TG, individual animals / Hepatic TG Levels, TG per protein, individual animals: DIO C57BL/6J mice, one value per animal; for Hepatic TG Levels, TG, individual animals / Hepatic TG Levels, TG, group mean: not normalised; for Hepatic TG Levels, TG per protein, group mean / Hepatic TG Levels, TG, group mean: DIO mice
Method: Liver tissues were homogenized in 5% NP-40 using FastPrep-24. To solubilize fat, the homogenates were heated to 95 °C for 5 min and cooled at 23 °C, and repeated. Triglyceride Reagent (Sigma-Aldrich) or DW was added and incubated at 37 °C for 30 min to hydrolyze TG into glycerol. For the colorimetric assay of hydrolyzed TG levels, samples were incubated with Free Glycerol Reagent (Sigma-Aldrich) at 37 °C for 5 min. Differences in absorbance at 540 nm between hydrolyzed or non-hydrolyzed TG were quantified using a glycerol standard (Sigma-Aldrich). […]

[4] = system: lipogenesis-related genes; test: DIO mice: qRT-PCR of lipogenesis-related genes in liver; details: DIO, PO, fold vs vehicle; for Fasn (Fold), Mean / Htr2a (Fold), Mean / Pparg (Fold), Mean / Srebp1c (Fold), Mean: group mean; for Fasn (Fold) / Htr2a (Fold) / Pparg (Fold) / Srebp1c (Fold): individual mouse
Method: Total RNA extractions from harvested tissues were performed using TRIzol according to the manufacturer’s protocol. After TURBO DNase (Invitrogen) treatment, 2 μg of total RNA was used to generate complementary DNA with a High-Capacity cDNA Reverse Transcription Kit (Thermo Fisher Scientific). Quantitative RT-PCR was performed with Fast SYBR Green Master Mix (Thermo Fisher Scientific) and a Viia 7 Real-time PCR System (Thermo Fisher Scientific) according to the manufacturer’s instructions. Gene expression was relatively quantified based on the delta-delta Ct (threshold cycle) method with the beta-actin gene as a reference gene. The sequence of primers can be found in the Supporting Information (Supplementary Table 2).

[5] = DIO mice, PO, 10mpk, mean, 10 mg/kg

CC[C@H]1[C@@H](O)[C@@H]2[C@H](CC[C@]3(C)[C@@H]([C@H](C)CCC(=O)O)CC[C@@H]23)[C@@]2(C)CC[C@@H](O)C[C@@H]12 [OCA, Obeticholic acid, reference compound]
hepatic fibrosis stage (STZ+HFD mice): improvement

Cc1nc2n(c(=O)c1CCN1CCC(=C3c4ccc(Cl)cc4CCc4cccnc43)CC1)CCCC2O (racemic) [GM106]
Ballooning (NAFLD Activity Score), individual animals (HFD-fed C57BL/6J mice [1]; PO, 5mpk, 5 mg/kg): 2.00 and 1.00 and 0.00 | Inflammation (NAFLD Activity Score), individual animals (HFD-fed C57BL/6J mice [1]; PO, 5mpk, 5 mg/kg): 2.00 and 1.00 | Steatosis (NAFLD Activity Score), individual animals (HFD-fed C57BL/6J mice [1]; PO, 5mpk, 5 mg/kg): 3.00 and 2.00 and 1.00 | Total Activity (Total NAFLD Activity Score), individual animals (HFD-fed C57BL/6J mice [1]; PO, 5mpk, 5 mg/kg): 7.00 and 5.00 and 3.00 and 6.00 and 2.00 and 4.00 | Ballooning (NAFLD Activity Score), individual animals (HFD-fed C57BL/6J mice [1]; PO, 10mpk, 10 mg/kg): 0.00 and 1.00 and 2.00 | Inflammation (NAFLD Activity Score), individual animals (HFD-fed C57BL/6J mice [1]; PO, 10mpk, 10 mg/kg): 1.00 and 2.00 and 0.00 | Steatosis (NAFLD Activity Score), individual animals (HFD-fed C57BL/6J mice [1]; PO, 10mpk, 10 mg/kg): 0.00 and 1.00 | Total Activity (Total NAFLD Activity Score), individual animals (HFD-fed C57BL/6J mice [1]; PO, 10mpk, 10 mg/kg): 1.00 and 3.00 and 5.00 and 0.00 | Hepatocyte ballooning score, Mean Diff. (Vehicle vs. treated) (HFD-fed C57BL/6J mice [1]; DIO mice, 5mpk): 0.2857 | Hepatocyte ballooning score, Mean Diff. (Vehicle vs. treated) (HFD-fed C57BL/6J mice [1]; DIO mice, 10mpk): 1 | Steatosis score, group mean (HFD-fed C57BL/6J mice [1]; DIO mice, PO, 5mpk, mean, 5 mg/kg): 2.0 | Steatosis score, group mean (HFD-fed C57BL/6J mice [1]; DIO mice, PO, 10mpk, mean): 0.5 | Hepatocyte ballooning score, group mean (HFD-fed C57BL/6J mice [1]; [5]): 1 | Lobular inflammation score, group mean (HFD-fed C57BL/6J mice [1]; [5]): 1.0 | Blood Biochemistry CHO, individual animals (HFD-fed C57BL/6J mice [2]; 5mpk, 5 mg/kg): 245.45 mg/dL and 237.41 mg/dL and 246.17 mg/dL and 215.59 mg/dL and 143.17 mg/dL and 210.2 mg/dL and 246.37 mg/dL | Blood Biochemistry TG, individual animals (HFD-fed C57BL/6J mice [2]; 5mpk, 5 mg/kg): 80.27 mg/dL and 61.12 mg/dL and 86.84 mg/dL and 48.55 mg/dL and 85.94 mg/dL and 70.5 mg/dL and 70.39 mg/dL | Blood Biochemistry CHO, individual animals (HFD-fed C57BL/6J mice [2]; 10mpk, 10 mg/kg): 190.51 mg/dL and 195.99 mg/dL and 228.58 mg/dL and 208.99 mg/dL and 197.21 mg/dL and 184.2 mg/dL | Blood Biochemistry TG, individual animals (HFD-fed C57BL/6J mice [2]; 10mpk, 10 mg/kg): 45.42 mg/dL and 58.97 mg/dL and 70.76 mg/dL and 76.11 mg/dL and 81.65 mg/dL and 74.22 mg/dL | Serum TG levels, group mean (HFD-fed C57BL/6J mice [2]; 5mpk): 71.94 mg/dL | Serum total cholesterol levels (CHO), group mean (HFD-fed C57BL/6J mice [2]; 5mpk, 5 mg/kg): 220.62 mg/dL | Serum TG levels, group mean (HFD-fed C57BL/6J mice [2]; 10mpk): 67.86 mg/dL | Serum total cholesterol levels (CHO), group mean (HFD-fed C57BL/6J mice [2]; 10mpk, 10 mg/kg): 200.91 mg/dL | Hepatic TG Levels, TG, individual animals (HFD-fed C57BL/6J mice [3]; 5mpk, 5 mg/kg): 0.07575 mg/mL and 0.09502 mg/mL and 0.09001 mg/mL and 0.07002 mg/mL and 0.1053 mg/mL and 0.1094 mg/mL and 0.1015 mg/mL | Hepatic TG Levels, TG per protein, individual animals (HFD-fed C57BL/6J mice [3]; 5mpk, 5 mg/kg): 71.5854 mg/g protein and 74.7025 mg/g protein and 51.6625 mg/g protein and 103.84 mg/g protein and 123.461 mg/g protein and 75.9936 mg/g protein and 58.3099 mg/g protein | Hepatic TG Levels, TG, individual animals (HFD-fed C57BL/6J mice [3]; 10mpk, 10 mg/kg): 0.06336 mg/mL and 0.0751 mg/mL and 0.08726 mg/mL and 0.101 mg/mL and 0.08773 mg/mL and 0.06215 mg/mL | Hepatic TG Levels, TG per protein, individual animals (HFD-fed C57BL/6J mice [3]; 10mpk, 10 mg/kg): 41.8429 mg/g protein and 54.7941 mg/g protein and 65.6095 mg/g protein and 56.3849 mg/g protein and 74.0866 mg/g protein and 34.3504 mg/g protein | Hepatic TG Levels, TG per protein, group mean (HFD-fed C57BL/6J mice [3]; 5mpk): 79.94 mg/g protein | Hepatic TG Levels, TG, group mean (HFD-fed C57BL/6J mice [3]; 5mpk): 0.09 mg/mL | Hepatic TG Levels, TG per protein, group mean (HFD-fed C57BL/6J mice [3]; 10mpk): 54.51 mg/g protein | Hepatic TG Levels, TG, group mean (HFD-fed C57BL/6J mice [3]; 10mpk): 0.08 mg/mL | Fasn (Fold), Mean ([4]; 5mpk, 7 mice): 0.745 | Htr2a (Fold), Mean ([4]; 5mpk, 7 mice): 0.510 | Pparg (Fold), Mean ([4]; 5mpk, 7 mice): 0.893 | Srebp1c (Fold), Mean ([4]; 5mpk, 7 mice): 0.768 | Fasn (Fold) ([4]; 5mpk, 5 mg/kg): 0.6490 and 1.2211 and 0.8546 and 0.7608 and 0.3082 and 0.7010 and 0.7176 | Htr2a (Fold) ([4]; 5mpk, 5 mg/kg): 0.4721 and 0.7255 and 0.4948 and 0.4297 and 0.7599 and 0.2475 and 0.4420 | Pparg (Fold) ([4]; 5mpk, 5 mg/kg): 0.9158 and 1.2274 and 0.7611 and 0.5677 and 1.3805 and 0.7174 and 0.6847 | Srebp1c (Fold) ([4]; 5mpk, 5 mg/kg): 0.9242 and 0.7728 and 0.8708 and 0.7607 and 0.6589 and 0.3460 and 1.0400 | Fasn (Fold), Mean ([4]; 10mpk, 6 mice): 0.560 | Htr2a (Fold), Mean ([4]; 10mpk, 6 mice): 0.414 | Pparg (Fold), Mean ([4]; 10mpk, 6 mice): 1.032 | Srebp1c (Fold), Mean ([4]; 10mpk, 6 mice): 0.496 | Fasn (Fold) ([4]; 10mpk, 10 mg/kg): 0.3894 and 0.5870 and 0.6740 and 0.7101 and 0.3290 and 0.6694 | Htr2a (Fold) ([4]; 10mpk, 10 mg/kg): 0.4677 and 0.2891 and 0.2762 and 0.4976 and 0.4041 and 0.5480 | Pparg (Fold) ([4]; 10mpk, 10 mg/kg): 0.7506 and 1.1267 and 1.0050 and 0.9956 and 1.2727 and 1.0412 | Srebp1c (Fold) ([4]; 10mpk, 10 mg/kg): 0.4795 and 0.5418 and 0.5388 and 0.5056 and 0.4290 and 0.4815
